Measurements reported in ChEMBL document CHEMBL3885881, “DrugMatrix”.

Species on record: Rattus norvegicus
Assay: DrugMatrix - Regimen: Daily Repeat
Format: toxicity, organism-based, Sprague-Dawley
Set-up: regimen Daily Repeat, gender Male, age 6-8 weeks
Details: in vivo, po, 740 mg/kg, route oral GAVAGE, dose level High, vehicle .5 % CMC; for ABSOLUTE BASOPHIL / ABSOLUTE EOSINOPHIL / ABSOLUTE LYMPHOCYTE / ABSOLUTE MONOCYTE / ABSOLUTE SEGMENTED NEUTROPHIL / BASOPHIL / EOSINOPHIL / ERYTHROCYTE COUNT / HEMATOCRIT / HEMOGLOBIN / LEUKOCYTE COUNT / LYMPHOCYTE / MEAN CORPUSCULAR HEMOGLOBIN / MEAN CORPUSCULAR HEMOGLOBIN CONCENTRATION / MEAN CORPUSCULAR VOLUME / MONOCYTE / NEUTROPHIL / NUCLEATED RED BLOOD CELLS / PLATELET COUNT: tissue Blood; for ALANINE AMINOTRANSFERASE / ALBUMIN / ALKALINE PHOSPHATASE / ASPARTATE AMINOTRANSFERASE / BLOOD UREA NITROGEN / CARBON DIOXIDE / CHLORIDE / CHOLESTEROL / CREATININE / GLUCOSE / LACTATE DEHYDROGENASE / LIPASE / PHOSPHORUS / POTASSIUM / SODIUM / TOTAL BILIRUBIN / TOTAL PROTEIN / URIC ACID: tissue Plasma

COc1ccccc1[N+](=O)[O-] [2-NITROANISOLE] was tested, and the “ABSOLUTE BASOPHIL” value (72 h, time 3 day) was 0 CELLS/uL, the “ABSOLUTE EOSINOPHIL” value (72 h, time 3 day) was 109.33 CELLS/uL and the “ABSOLUTE LYMPHOCYTE” value (72 h, time 3 day) was 13522 CELLS/uL. The “ABSOLUTE MONOCYTE” value (72 h, time 3 day) was 1089.33 CELLS/uL, the “ABSOLUTE SEGMENTED NEUTROPHIL” value (72 h, time 3 day) was 2512.67 CELLS/uL and the BASOPHIL (72 h, time 3 day) was 0%. For the same compound, the EOSINOPHIL (72 h, time 3 day) was 0.67%, the “ERYTHROCYTE COUNT” value (72 h, time 3 day) was 5.38 x10E6/uL and the HEMATOCRIT (72 h, time 3 day) was 32.17%. For the same compound, the HEMOGLOBIN (72 h, time 3 day) was 11.9 G/DL, the “LEUKOCYTE COUNT” value (72 h, time 3 day) was 17.23 x10E3/uL and the LYMPHOCYTE (72 h, time 3 day) was 78.67%. The “MEAN CORPUSCULAR HEMOGLOBIN” value (72 h, time 3 day) was 22.1 pg, the “MEAN CORPUSCULAR HEMOGLOBIN CONCENTRATION” value (72 h, time 3 day) was 37 G/DL and the “MEAN CORPUSCULAR VOLUME” value (72 h, time 3 day) was 59.83 fL. The MONOCYTE (72 h, time 3 day) was 6.33%, the NEUTROPHIL (72 h, time 3 day) was 14.33% and the “NUCLEATED RED BLOOD CELLS” value (72 h, time 3 day) was 0 /100WBC. For the same compound, the “PLATELET COUNT” value (72 h, time 3 day) was 1241.67 x10E3/uL, the “ALANINE AMINOTRANSFERASE” value (72 h, time 3 day) was 84.67 u/L and the ALBUMIN (72 h, time 3 day) was 4.37 G/DL. The “ALKALINE PHOSPHATASE” value (72 h, time 3 day) was 448.33 u/L, the “ASPARTATE AMINOTRANSFERASE” value (72 h, time 3 day) was 103.67 u/L and the “BLOOD UREA NITROGEN” value (72 h, time 3 day) was 14 mg/dL. For the same compound, the “CARBON DIOXIDE” value (72 h, time 3 day) was 22.67 mmol/L, the CHLORIDE (72 h, time 3 day) was 101.67 MEQ/L and the CHOLESTEROL (72 h, time 3 day) was 95.67 mg/dL. The CREATININE (72 h, time 3 day) was 0.18 mg/dL, the GLUCOSE (72 h, time 3 day) was 145 mg/dL and the “LACTATE DEHYDROGENASE” value (72 h, time 3 day) was 412.67 u/L. It also gave an LIPASE (72 h, time 3 day) of 9.33 u/L, a PHOSPHORUS (72 h, time 3 day) of 11.6 mg/dL and a POTASSIUM (72 h, time 3 day) of 6.07 MEQ/L. The SODIUM (72 h, time 3 day) was 142.23 MEQ/L, the “TOTAL BILIRUBIN” value (72 h, time 3 day) was 0.23 mg/dL and the “TOTAL PROTEIN” value (72 h, time 3 day) was 5.93 G/DL. For the same compound, the “URIC ACID” value (72 h, time 3 day) was 1.7 mg/dL, the “ABSOLUTE BASOPHIL” value (120 h, time 5 day) was 0 CELLS/uL and the “ABSOLUTE EOSINOPHIL” value (120 h, time 5 day) was 0 CELLS/uL. For the same compound, the “ABSOLUTE LYMPHOCYTE” value (120 h, time 5 day) was 12322.33 CELLS/uL, the “ABSOLUTE MONOCYTE” value (120 h, time 5 day) was 57 CELLS/uL and the “ABSOLUTE SEGMENTED NEUTROPHIL” value (120 h, time 5 day) was 3254 CELLS/uL. The BASOPHIL (120 h, time 5 day) was 0%, the EOSINOPHIL (120 h, time 5 day) was 0% and the “ERYTHROCYTE COUNT” value (120 h, time 5 day) was 5.04 x10E6/uL. For the same compound, the HEMATOCRIT (120 h, time 5 day) was 30.5%, the HEMOGLOBIN (120 h, time 5 day) was 10.83 G/DL and the “LEUKOCYTE COUNT” value (120 h, time 5 day) was 15.63 x10E3/uL. The LYMPHOCYTE (120 h, time 5 day) was 79%, the “MEAN CORPUSCULAR HEMOGLOBIN” value (120 h, time 5 day) was 21.5 pg and the “MEAN CORPUSCULAR HEMOGLOBIN CONCENTRATION” value (120 h, time 5 day) was 35.5 G/DL. The “MEAN CORPUSCULAR VOLUME” value (120 h, time 5 day) was 60.6 fL, the MONOCYTE (120 h, time 5 day) was 0.33% and the NEUTROPHIL (120 h, time 5 day) was 20.67%. For the same compound, the “NUCLEATED RED BLOOD CELLS” value (120 h, time 5 day) was 1 /100WBC, the “PLATELET COUNT” value (120 h, time 5 day) was 1041 x10E3/uL and the “ALANINE AMINOTRANSFERASE” value (120 h, time 5 day) was 76.67 u/L. The ALBUMIN (120 h, time 5 day) was 4.67 G/DL, the “ALKALINE PHOSPHATASE” value (120 h, time 5 day) was 401.67 u/L and the “ASPARTATE AMINOTRANSFERASE” value (120 h, time 5 day) was 101 u/L. The “BLOOD UREA NITROGEN” value (120 h, time 5 day) was 14.33 mg/dL, the “CARBON DIOXIDE” value (120 h, time 5 day) was 33 mmol/L and the CHLORIDE (120 h, time 5 day) was 98.33 MEQ/L. For the same compound, the CHOLESTEROL (120 h, time 5 day) was 92.33 mg/dL, the CREATININE (120 h, time 5 day) was 0.15 mg/dL and the GLUCOSE (120 h, time 5 day) was 127 mg/dL. The “LACTATE DEHYDROGENASE” value (120 h, time 5 day) was 114.33 u/L, the LIPASE (120 h, time 5 day) was 9.67 u/L and the PHOSPHORUS (120 h, time 5 day) was 12.23 mg/dL. For the same compound, the POTASSIUM (120 h, time 5 day) was 6 MEQ/L, the SODIUM (120 h, time 5 day) was 144.43 MEQ/L and the “TOTAL BILIRUBIN” value (120 h, time 5 day) was 0.23 mg/dL. For the same compound, the “TOTAL PROTEIN” value (120 h, time 5 day) was 6.53 G/DL, the “URIC ACID” value (120 h, time 5 day) was 0.9 mg/dL and the “ABSOLUTE BASOPHIL” value ([…], time 14 day) was 0 CELLS/uL. For the same compound, the “ABSOLUTE EOSINOPHIL” value ([…], time 14 day) was 157.6 CELLS/uL, the “ABSOLUTE LYMPHOCYTE” value ([…], time 14 day) was 18755.2 CELLS/uL and the “ABSOLUTE MONOCYTE” value ([…], time 14 day) was 504.8 CELLS/uL. The “ABSOLUTE SEGMENTED NEUTROPHIL” value ([…], time 14 day) was 3782.4 CELLS/uL, the BASOPHIL ([…], time 14 day) was 0% and the EOSINOPHIL ([…], time 14 day) was 0.8%. For the same compound, the “ERYTHROCYTE COUNT” value ([…], time 14 day) was 4.9 x10E6/uL, the HEMATOCRIT ([…], time 14 day) was 34.42% and the HEMOGLOBIN ([…], time 14 day) was 12.78 G/DL. The “LEUKOCYTE COUNT” value ([…], time 14 day) was 23.2 x10E3/uL, the LYMPHOCYTE ([…], time 14 day) was 80.8% and the “MEAN CORPUSCULAR HEMOGLOBIN” value ([…], time 14 day) was 26.14 pg. The “MEAN CORPUSCULAR HEMOGLOBIN CONCENTRATION” value ([…], time 14 day) was 37.14 G/DL, the “MEAN CORPUSCULAR VOLUME” value ([…], time 14 day) was 70.28 fL and the MONOCYTE ([…], time 14 day) was 2.2%. For the same compound, the NEUTROPHIL ([…], time 14 day) was 16.2%, the “NUCLEATED RED BLOOD CELLS” value ([…], time 14 day) was 0 /100WBC and the “PLATELET COUNT” value ([…], time 14 day) was 1231 x10E3/uL. For the same compound, the “ALANINE AMINOTRANSFERASE” value ([…], time 14 day) was 73.4 u/L, the ALBUMIN ([…], time 14 day) was 4.84 G/DL and the “ALKALINE PHOSPHATASE” value ([…], time 14 day) was 271.2 u/L. For the same compound, the “ASPARTATE AMINOTRANSFERASE” value ([…], time 14 day) was 85.6 u/L, the “BLOOD UREA NITROGEN” value ([…], time 14 day) was 17 mg/dL and the “CARBON DIOXIDE” value ([…], time 14 day) was 31.6 mmol/L. For the same compound, the CHLORIDE ([…], time 14 day) was 99.2 MEQ/L, the CHOLESTEROL ([…], time 14 day) was 77 mg/dL and the CREATININE ([…], time 14 day) was 0.21 mg/dL. The GLUCOSE ([…], time 14 day) was 125 mg/dL, the “LACTATE DEHYDROGENASE” value ([…], time 14 day) was 356.6 u/L and the LIPASE ([…], time 14 day) was 9 u/L. The PHOSPHORUS ([…], time 14 day) was 11.68 mg/dL, the POTASSIUM ([…], time 14 day) was 6.84 MEQ/L and the SODIUM ([…], time 14 day) was 142.78 MEQ/L. For the same compound, the “TOTAL BILIRUBIN” value ([…], time 14 day) was 0.28 mg/dL, the “TOTAL PROTEIN” value ([…], time 14 day) was 6.82 G/DL and the “URIC ACID” value ([…], time 14 day) was 1.6 mg/dL.
